Source: patent US7202245B2, “Substituted 4-amino[1,2,4]triazolo[4,3-a] quinoxalines” (Pfizer Inc., priority 2003, dated 2007)

Target: T1, GSK-3 (Homo sapiens, UniProt P49841)
T1 construct: made in house; as in Stambolic et al. 1996
Test: GSK-3 inhibition, cell-free 33P-ATP peptide substrate assay
Assay type: biochemical
Conditions: read-out: inhibitory activity, expressed as IC50's, against GSK-3
Description: The specific activities of the compounds of formula (I) in inhibiting GSK-3 can be determined in both cell-free and cell-based assays, both of which have been previously described in the relevant art. See, for example, U.S. Pat. Nos. 6,417,185 and 6,489,344, the disclosures of which are incorporated herein by reference in their entirety.
A cell-free testing assay can be generally carried out by incubating GSK-3 with a peptide substrate, radiolabeled ATP (e.g., for example, […], both of which are available from Amersham; Arlington Heights, Ill.), magnesium ions, and the compound to be assayed. […] The amount of γ^33P or γ^32P remaining in each well after washing is then quantified to determine the amount of radiolabeled phosphate incorporated into the peptide substrate. […]
Another example of a GSK-3 testing assay, similar to the one described hereinabove, is as follows: enzyme activities are assayed as the incorporation of ^33P from the gamma phosphate of ^33P-ATP (Amersham; Arlington Heights, Ill.; catalog #AH-9968) into biotinylated peptide substrate PKTP-KKAKKL. […] The final concentration of ATP is 0.5 μM (final specific radioactivity of 4 μCi/nmol), and the final concentration of substrate is 0.75 μM. […] Radioactivity associated with the beads is then quantified by standard scintillation counting. […]

T1 sequence (P49841 whole entry): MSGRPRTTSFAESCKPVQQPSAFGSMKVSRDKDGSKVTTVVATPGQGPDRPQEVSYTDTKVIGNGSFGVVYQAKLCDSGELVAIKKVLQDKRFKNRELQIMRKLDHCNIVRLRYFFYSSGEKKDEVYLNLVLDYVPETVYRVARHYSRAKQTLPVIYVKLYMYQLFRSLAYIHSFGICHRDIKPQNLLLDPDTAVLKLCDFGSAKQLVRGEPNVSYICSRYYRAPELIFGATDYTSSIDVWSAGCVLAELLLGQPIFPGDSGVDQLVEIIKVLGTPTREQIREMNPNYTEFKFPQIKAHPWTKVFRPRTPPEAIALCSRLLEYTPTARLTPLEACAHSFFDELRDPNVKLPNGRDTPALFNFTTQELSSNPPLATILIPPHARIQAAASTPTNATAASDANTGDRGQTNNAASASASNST

In the case of `O=c1[nH]nc2c(NCCNc3ccc(C(F)(F)F)cn3)nc3ccc(F)cc3n12` [Example 71, 8-Fluoro-4-[2-(5-trifluoromethyl-pyridin-2-Ylamino)-ethylamino]-2H-[1,2,4]triazolo[4,3-a]quinoxalin-1-one], the IC50 is reported as 6 nM.
